Source: BindingDB's records for doi:10.3109/14756360903179435 (Jamia Hamdard, 2010)

What was measured:
[1] = target: T1, Prostaglandin G/H synthase 2 (Ovis aries, UniProt P79208); assay: In Vitro Cyclo-Oxygenase Inhibition Assay
T1 sequence (P79208 whole entry): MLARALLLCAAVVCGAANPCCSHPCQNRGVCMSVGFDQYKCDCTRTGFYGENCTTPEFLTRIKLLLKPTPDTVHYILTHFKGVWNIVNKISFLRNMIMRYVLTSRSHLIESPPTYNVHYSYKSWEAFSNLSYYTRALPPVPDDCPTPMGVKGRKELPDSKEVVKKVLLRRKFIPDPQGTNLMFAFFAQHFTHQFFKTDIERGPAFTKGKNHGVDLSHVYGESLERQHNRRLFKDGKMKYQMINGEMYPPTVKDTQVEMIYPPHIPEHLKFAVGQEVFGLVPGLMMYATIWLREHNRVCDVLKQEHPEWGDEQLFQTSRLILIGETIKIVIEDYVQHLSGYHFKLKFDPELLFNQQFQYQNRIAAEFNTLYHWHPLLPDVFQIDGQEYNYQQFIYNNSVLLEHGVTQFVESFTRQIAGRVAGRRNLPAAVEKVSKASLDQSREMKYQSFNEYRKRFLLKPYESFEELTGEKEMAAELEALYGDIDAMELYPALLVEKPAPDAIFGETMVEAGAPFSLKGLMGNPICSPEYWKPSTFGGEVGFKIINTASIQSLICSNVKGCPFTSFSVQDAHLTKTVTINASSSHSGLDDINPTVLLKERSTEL
Protocol: (§1) Inhibition of the enzymes was determined using an enzyme immunoassay (EIA) kit (catalog no. 560101, Cayman Chemical, Ann Arbor, MI, USA) according to the methodology described by Jashim Uddin et al. [Jashim Uddin et al., Bioorg. Med. Chem., 12:5929-40].

[2] = target: T2, Prostaglandin G/H synthase 1 (Ovis aries, UniProt P05979); assay: In Vitro Cyclo-Oxygenase Inhibition Assay
T2 sequence (P05979 whole entry): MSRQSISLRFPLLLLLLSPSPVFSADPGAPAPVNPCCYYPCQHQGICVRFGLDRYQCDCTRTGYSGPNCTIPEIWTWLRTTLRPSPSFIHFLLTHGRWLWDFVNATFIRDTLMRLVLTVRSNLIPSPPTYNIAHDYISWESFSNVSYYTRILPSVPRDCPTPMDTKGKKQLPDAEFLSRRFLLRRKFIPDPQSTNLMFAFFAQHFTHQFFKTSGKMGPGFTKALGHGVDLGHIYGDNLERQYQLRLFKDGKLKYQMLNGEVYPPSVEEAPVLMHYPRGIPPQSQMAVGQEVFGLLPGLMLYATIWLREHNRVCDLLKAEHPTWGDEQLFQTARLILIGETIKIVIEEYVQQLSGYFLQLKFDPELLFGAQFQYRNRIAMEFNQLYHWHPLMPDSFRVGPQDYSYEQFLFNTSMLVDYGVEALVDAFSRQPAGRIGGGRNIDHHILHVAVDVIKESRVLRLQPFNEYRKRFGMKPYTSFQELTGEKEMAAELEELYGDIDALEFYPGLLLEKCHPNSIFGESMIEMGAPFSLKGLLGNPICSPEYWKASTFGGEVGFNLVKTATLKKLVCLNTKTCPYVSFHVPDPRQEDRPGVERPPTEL
Protocol: as §1

IC50 [1] [nM]	IC50 [2] [µM]	SMILES
1800	47.6	CC(C)Cc1ccc(C2=C/C(=C\c3c(Cl)cccc3Cl)C(=O)O2)cc1 [3-(2,6-Dichlorobenzylidene)-5-(4-isobutylphenyl)-2(3H)-furanone (13)]
2400	52.4	CC(C)Cc1ccc(C2=C/C(=C\c3ccccc3Cl)C(=O)O2)cc1 [3-(2-Chlorobenzylidene)-5-(4-isobutylphenyl)-2(3H)-furanone (3)]
3800	68.3	CC(C)Cc1ccc(C2=C/C(=C\c3ccc(F)cc3)C(=O)O2)cc1 [3-(4-Fluorobenzylidene)-5-(4-isobutylphenyl)-2(3H)-furanone (9)]
2200	48.2	CC(C)Cc1ccc(C2=C/C(=C\c3ccc(Cl)cc3Cl)C(=O)O2)cc1 [3-(2,4-Dichlorobenzylidene)-5-(4-isobutylphenyl)-2(3H)-furanone (14)]
